Data: ChEMBL document CHEMBL1938343, “Lead optimisation of selective non-zinc binding inhibitors of MMP13. Part 2” (Bioorg Med Chem Lett, 2012)

Tests used:
[1] = Clearance in dog at 1 mg/kg, iv and 1 mg/kg, po; format: ADME, organism-based, Canis lupus familiaris; settings: in vivo
[2] = Half life in dog at 1 mg/kg, iv and 1 mg/kg, po; format: ADME, organism-based, Canis lupus familiaris; settings: in vivo
[3] = Volume of distribution at steady state in dog at 1 mg/kg, iv and 1 mg/kg, po; format: ADME, organism-based, Canis lupus familiaris; settings: in vivo, read-out: Vdss
[4] = Cytotoxicity in mouse spleen macrophages assessed as phospholipidosis; settings: Macrophage
[5] = biological target: Collagenase 3 (Homo sapiens, UniProt P45452); assay: Inhibition of recombinant human MMP13 using Mca-Pro-cyclohexyl-Ala-Gly-Nva-His-Ala- Dap(Dnp)-NH2 as substrate by fluorometric analysis; settings: read-out: IC50
[6] = Fraction unbound in rat; format: ADME, organism-based; settings: in vivo
[7] = biological target: Matrix metalloproteinase-14 (Homo sapiens, UniProt P50281); assay: Inhibition of MMP14 using Mca-Pro-cyclohexyl-Ala-Gly-Nva-His-Ala- Dap(Dnp)-NH2 as substrate by fluorometric analysis
[8] = Fraction unbound in human; format: ADME, organism-based; settings: in vivo
[9] = Half life in rat at 2 mg/kg, iv; format: ADME, organism-based; set-up: dose 2 mg/kg, route intravenous; settings: in vivo
[10] = Intrinsic clearance in human microsomes; format: ADME, Microsome
[11] = biological target: Matrix metalloproteinase-9 (Homo sapiens, UniProt P14780); assay: Inhibition of MMP9 using Mca-Pro-cyclohexyl-Ala-Gly-Nva-His-Ala- Dap(Dnp)-NH2 as substrate by fluorometric analysis
Chain of Matrix metalloproteinase-9 (P14780 whole entry): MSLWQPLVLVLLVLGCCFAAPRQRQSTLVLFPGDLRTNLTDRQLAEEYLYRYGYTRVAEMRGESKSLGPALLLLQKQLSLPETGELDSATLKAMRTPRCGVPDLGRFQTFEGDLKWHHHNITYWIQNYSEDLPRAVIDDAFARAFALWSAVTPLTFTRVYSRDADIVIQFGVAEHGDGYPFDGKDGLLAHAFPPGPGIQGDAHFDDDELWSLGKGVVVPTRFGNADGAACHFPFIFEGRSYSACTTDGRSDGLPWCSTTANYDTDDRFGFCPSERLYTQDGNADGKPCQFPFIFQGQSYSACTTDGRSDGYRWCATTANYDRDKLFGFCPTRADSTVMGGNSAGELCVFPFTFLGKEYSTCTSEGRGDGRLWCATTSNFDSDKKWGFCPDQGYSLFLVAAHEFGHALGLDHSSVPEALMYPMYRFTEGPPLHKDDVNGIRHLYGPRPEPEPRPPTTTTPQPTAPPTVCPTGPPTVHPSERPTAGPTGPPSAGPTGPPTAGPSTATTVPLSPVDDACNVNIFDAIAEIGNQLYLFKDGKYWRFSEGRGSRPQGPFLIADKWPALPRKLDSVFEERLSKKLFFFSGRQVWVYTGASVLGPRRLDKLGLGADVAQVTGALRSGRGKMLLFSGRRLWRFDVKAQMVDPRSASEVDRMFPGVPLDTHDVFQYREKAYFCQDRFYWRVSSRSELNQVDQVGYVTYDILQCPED

[12] = Oral bioavailability in rat; format: ADME, organism-based; settings: in vivo
[13] = Volume of distribution at steady state in rat at 2 mg/kg, iv; format: ADME, organism-based; set-up: dose 2 mg/kg, route intravenous; settings: in vivo, read-out: Vdss
[14] = Thermodynamic solubility of the compound; settings: Therm_solubility
[15] = Renal elimination in rat at 2 mg/kg, iv; format: ADME, organism-based; set-up: dose 2 mg/kg, route intravenous; settings: urine, read-out: Ae
[16] = Intrinsic clearance in Sprague-Dawley rat hepatocytes assessed per 10^6 cells; format: ADME, cell-based, Hepatocyte; settings: Sprague-Dawley, read-out: CLH
[17] = Clearance in rat at 2 mg/kg, iv; format: ADME, organism-based; set-up: dose 2 mg/kg, route intravenous; settings: in vivo
[18] = biological target: 72 kDa type IV collagenase (Homo sapiens, UniProt P08253); assay: Inhibition of MMP2 using Mca-Pro-cyclohexyl-Ala-Gly-Nva-His-Ala- Dap(Dnp)-NH2 as substrate by fluorometric analysis; settings: read-out: IC50
Chain of 72 kDa type IV collagenase (P08253 whole entry): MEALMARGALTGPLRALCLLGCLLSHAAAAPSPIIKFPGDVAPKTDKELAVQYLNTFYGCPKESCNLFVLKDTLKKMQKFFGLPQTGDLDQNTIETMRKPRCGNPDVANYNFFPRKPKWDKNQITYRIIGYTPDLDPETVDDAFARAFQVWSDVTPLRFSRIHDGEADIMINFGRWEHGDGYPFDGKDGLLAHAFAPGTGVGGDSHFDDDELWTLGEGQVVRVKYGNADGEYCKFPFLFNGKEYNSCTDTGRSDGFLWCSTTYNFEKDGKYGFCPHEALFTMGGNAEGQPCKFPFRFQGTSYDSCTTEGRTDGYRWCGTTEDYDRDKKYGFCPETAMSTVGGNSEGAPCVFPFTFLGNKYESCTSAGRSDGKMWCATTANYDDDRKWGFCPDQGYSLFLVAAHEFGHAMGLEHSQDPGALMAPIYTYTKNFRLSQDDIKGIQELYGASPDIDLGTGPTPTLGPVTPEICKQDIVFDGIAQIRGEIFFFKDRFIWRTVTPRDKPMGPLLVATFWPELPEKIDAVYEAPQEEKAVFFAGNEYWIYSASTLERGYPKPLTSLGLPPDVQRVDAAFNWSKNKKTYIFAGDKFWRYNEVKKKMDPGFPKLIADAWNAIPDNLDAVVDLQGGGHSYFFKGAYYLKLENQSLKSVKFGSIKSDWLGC

[19] = biological target: T1, A disintegrin and metalloproteinase with thrombospondin motifs 4 (Homo sapiens) (UniProt O75173); assay: Inhibition of ADAM-TS4 using dimethoxyfluorescein-Ser-Pro-Leu-Ala-Gln-Ala- Val-Arg-ser-Ser-Arg-Cys-fluorescein as substrate
T1 sequence (whole entry): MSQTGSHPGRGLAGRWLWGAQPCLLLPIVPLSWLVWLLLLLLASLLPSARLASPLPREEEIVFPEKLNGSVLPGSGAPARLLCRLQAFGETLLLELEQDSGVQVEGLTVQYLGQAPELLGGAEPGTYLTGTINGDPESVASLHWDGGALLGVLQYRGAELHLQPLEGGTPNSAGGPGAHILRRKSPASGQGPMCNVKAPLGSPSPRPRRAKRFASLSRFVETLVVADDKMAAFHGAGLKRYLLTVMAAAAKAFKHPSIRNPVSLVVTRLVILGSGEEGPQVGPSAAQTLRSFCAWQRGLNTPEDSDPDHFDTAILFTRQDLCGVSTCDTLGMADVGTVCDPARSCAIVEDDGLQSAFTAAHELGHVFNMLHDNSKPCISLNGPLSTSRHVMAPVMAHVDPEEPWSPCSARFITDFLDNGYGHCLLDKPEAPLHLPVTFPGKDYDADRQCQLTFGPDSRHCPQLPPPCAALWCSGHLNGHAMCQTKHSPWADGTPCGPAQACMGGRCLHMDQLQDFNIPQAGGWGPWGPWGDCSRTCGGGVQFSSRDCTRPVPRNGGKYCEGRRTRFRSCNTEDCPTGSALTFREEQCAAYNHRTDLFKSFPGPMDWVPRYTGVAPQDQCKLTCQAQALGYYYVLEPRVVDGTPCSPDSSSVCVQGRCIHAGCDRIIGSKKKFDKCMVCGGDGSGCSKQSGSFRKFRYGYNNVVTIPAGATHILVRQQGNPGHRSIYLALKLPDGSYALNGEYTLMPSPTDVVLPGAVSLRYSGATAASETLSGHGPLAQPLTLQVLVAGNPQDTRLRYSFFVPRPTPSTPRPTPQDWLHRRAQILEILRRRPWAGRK

[20] = Fraction unbound in dog; format: ADME, organism-based, Canis lupus familiaris; settings: in vivo
[21] = biological target: T2, A disintegrin and metalloproteinase with thrombospondin motifs 5 (Homo sapiens) (UniProt Q9UNA0); assay: Inhibition of ADAM-TS5 using dimethoxyfluorescein-Ser-Pro-Leu-Ala-Gln-Ala- Val-Arg-ser-Ser-Arg-Cys-fluorescein as substrate
T2 sequence (whole entry): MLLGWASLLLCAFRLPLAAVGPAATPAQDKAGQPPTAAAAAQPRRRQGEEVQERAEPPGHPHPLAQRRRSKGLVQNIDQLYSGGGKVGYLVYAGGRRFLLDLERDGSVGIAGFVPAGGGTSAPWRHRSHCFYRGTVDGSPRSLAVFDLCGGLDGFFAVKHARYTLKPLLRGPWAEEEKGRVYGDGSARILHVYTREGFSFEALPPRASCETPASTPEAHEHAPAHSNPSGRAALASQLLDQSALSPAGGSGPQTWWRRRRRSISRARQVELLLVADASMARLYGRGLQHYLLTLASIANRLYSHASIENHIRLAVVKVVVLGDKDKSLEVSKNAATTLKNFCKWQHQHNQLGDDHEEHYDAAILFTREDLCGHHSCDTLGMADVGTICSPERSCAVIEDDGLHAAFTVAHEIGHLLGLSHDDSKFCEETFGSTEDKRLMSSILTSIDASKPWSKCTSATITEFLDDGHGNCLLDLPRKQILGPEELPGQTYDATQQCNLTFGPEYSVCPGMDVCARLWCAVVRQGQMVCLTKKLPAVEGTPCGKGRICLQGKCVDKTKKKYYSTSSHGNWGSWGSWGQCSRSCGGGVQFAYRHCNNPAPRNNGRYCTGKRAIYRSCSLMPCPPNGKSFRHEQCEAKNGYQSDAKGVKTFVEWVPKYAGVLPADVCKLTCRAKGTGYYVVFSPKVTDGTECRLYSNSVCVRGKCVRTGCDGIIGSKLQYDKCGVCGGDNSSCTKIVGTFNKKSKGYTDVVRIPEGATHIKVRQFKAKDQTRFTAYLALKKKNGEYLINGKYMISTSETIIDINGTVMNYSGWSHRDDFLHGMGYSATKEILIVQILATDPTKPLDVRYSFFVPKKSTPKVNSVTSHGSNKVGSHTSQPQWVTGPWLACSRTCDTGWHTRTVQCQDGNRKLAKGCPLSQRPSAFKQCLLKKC

[22] = Intrinsic clearance in human hepatocytes assessed per 10^6 cells; format: ADME, cell-based, Hepatocyte; settings: read-out: CLH
[23] = Apparent permeability across basolateral to apical side in human Caco2 cells at 10 uM; format: ADME, cell-based; settings: Caco-2
[24] = Oral bioavailability in dog; format: ADME, organism-based, Canis lupus familiaris; settings: in vivo

CN1CCC(NC(=O)c2ccc(Oc3ccc(C#C[C@]4(O)CN5CCC4CC5)cc3)cc2)CC1
clearance [1]: 3.6 mL/min/kg | half-life [2]: 23 h | Vd [3]: 6.6 L/kg | EC50 [4]: 8 µM | IC50 [5]: 0.074 µM | fraction unbound [6]: 0.73 | pIC50 [7]: < 5 | IC50 ([7]; read-out: IC50): > 10 µM | fraction unbound [8]: 0.41 | half-life [9]: 10.1 h | microsomal CLint [10]: 2.6 µL/min/mg | pIC50 [11]: < 5 | IC50 ([11]; read-out: IC50): > 10 µM | bioavailability [12]: 2% | Vd [13]: 12.6 L/kg | solubility thermodynamic [14]: > 2000 µM | dose excreted [15]: < 1% | hepatocyte CLint [16]: < 2 µL/min/1e6 cells | clearance [17]: 16 mL/min/kg | IC50 [18]: 7.3 µM | INH [19]: > 10 µM | fraction unbound [20]: 0.47 | INH [21]: > 10 µM | hepatocyte CLint [22]: < 2 µL/min/1e6 cells | Papp B→A at 10 µM [23]: 7.4 ×10⁻⁶ cm/s | bioavailability [24]: 47%
